Reference: US5138069A (E. I. Du Pont de Nemours and Company, priority 1988, dated 1992)
Counter-ions that a name gives are not always drawn. Like-named read-outs stand apart in the source and are kept apart here.

How the values were obtained:
[1] = system: Renal Hypertensive Rats; assay: Antihypertensive effects in renal hypertensive rats; format: in vivo; conditions: Rattus norvegicus; for minimal effective dose at 3 mg/kg / minimal effective dose at 30 mg/kg: Table 26; for minimal effective dose at 3 mg/kg / minimal effective dose at 10 mg/kg: intravenous; for minimal effective dose at 30 mg/kg / minimal effective dose at 100 mg/kg: oral; for minimal effective dose at 10 mg/kg / minimal effective dose at 100 mg/kg: Table 25; for minimal effective dose at 10 mg/kg: 10 mg/kg or less; for minimal effective dose at 100 mg/kg: 100 mg/kg or less
Method: This procedure increases blood pressure by increasing renin production with consequent elevation of AII levels. Compounds are administered orally at 100 mg/kg and/or intravenously via a cannula in the jugular vein at 10 mg/kg. Arterial blood pressure is continuously measured directly through a carotid artery cannula and recorded using a pressure transducer and a polygraph. Blood pressure levels after treatment are compared to pretreatment levels to determine the antihypertensive effects of the compounds (See Table 25).
(§1) Compounds listed in Table 26 were tested in the same manner as described for Table 25, except that in the test for antihypertensive effects in renal hypertensive rats, the compounds were administered orally at 30 mg/kg and intravenously at 3 mg/kg.

[2] = target: AII receptor; assay: Angiotensin II receptor binding (displacement of 3H-AII); conditions: read-out: Angiotensin II Receptor Binding IC50, rat adrenal cortical microsomes, 2 nM 3H-AII, 1 hour, room temperature
Method: The assay was carried out according to the method described by [Glossmann et al., J. Biol. Chem., 249, 825 (1974)], but with some modifications. The reaction mixture contained rat adrenal cortical microsomes (source of AII receptor) in Tris buffer and 2 nM of ^3 H-AII with or without potential AII antagonist. This mixture was incubated for 1 hour at room temperature and the reaction was subsequently terminated by rapid filtration and rinsing through glass micro-fibre filter. Receptor-bound ^3 H-AII trapped in filter was quantitated by scintillation counting.
as §1

[3] = Table 25, tested as sodium salt

| Compound | IC50 ([2]; Table 26) | IC50 ([2]; Table 25) | minimal effective dose at 3 mg/kg [1] | minimal effective dose at 30 mg/kg [1] | minimal effective dose at 10 mg/kg [1] | minimal effective dose at 100 mg/kg [1] | also measured |
| --- | --- | --- | --- | --- | --- | --- | --- |
| CCCCc1nc(CO)c(Cl)n1Cc1ccc(-c2ccccc2-c2[nH]nnc2C(=O)OC)cc1 [Example 339, 2-n-Butyl-5-chloro-1-[(2'-(5-carbomethoxy-1,2,3-triazol-4-yl)biphenyl-4-yl)-methyl]-5-hydroxymethylimidazole] | 1700 nM | – | < 3 mg/kg | < 30 mg/kg | – | – | – |
| COc1ccc(Cc2nccn2Cc2ccc(NC(=O)c3ccccc3C(=O)O)cc2)cc1 [Example 70] | – | 2500 nM | – | – | < 10 mg/kg | > 100 mg/kg | – |
| CCCCc1nc(Cl)c(CO)n1Cc1ccc(-c2cccc(C)c2C(=O)O)cc1 [Example 106] | – | 1900 nM | – | – | < 10 mg/kg | < 100 mg/kg | – |
| CCCCCc1nc(Cl)c(CO)n1Cc1ccc(-c2ccccc2C(=O)O)cc1 [Example 109] | – | 980 nM | – | – | < 10 mg/kg | < 100 mg/kg | – |
| CSc1ncc(CO)n1Cc1ccc(NC(=O)c2ccccc2C(=O)O)cc1 [Example 72, 1-[4-(2-Carboxybenzamido)-benzyl]-5-hydroxymethyl-2-(methylthio)-imidazole] | – | 6500 nM | – | – | < 10 mg/kg | > 100 mg/kg | – |
| CCCCc1nc(Cl)c(CC(=O)OC)n1Cc1ccc(NC(=O)[C@@H]2CCCC[C@@H]2NS(=O)(=O)C(F)(F)F)cc1 (relative stereo) [Example 74 (cis compound), methyl 2-butyl-4-chloro-1-[4-(cis-2-(trifluoromethanesulfonamido)cyclohexanecarboxamido)benzyl]imidazole-5-acetate] | – | 4500 nM | – | – | < 10 mg/kg | > 100 mg/kg | – |
| CCCCc1nc(Cl)c(CC(=O)OC)n1Cc1ccc(N2C(=O)c3ccccc3C2=O)cc1 [Example 29, Methyl 2-butyl-4-chloro-1-(4-N-phthalimidobenzyl)imidazole-5-acetate] | – | 3100 nM | – | – | < 10 mg/kg | > 100 mg/kg | – |
| CCCCc1nc(Cl)c(CC(=O)OC)n1Cc1ccc(NS(=O)(=O)C(F)(F)F)cc1 [Example 21, Methyl 2-butyl-4-chloro-1-[4-(trifluoromethylsulfonamido)benzyl]imidazole-5-acetate] | – | – | – | – | – | – | minimal effective dose at 10 mg/kg ([1]; tested as sodium salt): < 10 mg/kg; minimal effective dose at 100 mg/kg ([1]; tested as sodium salt): > 100 mg/kg; IC50 [2, 3]: 2100 nM |
| CCCCc1ncc(CO)n1Cc1ccc(-c2ccccc2C(=O)O)cc1 [Example 97] | – | 270 nM | – | – | < 10 mg/kg | > 100 mg/kg | – |
| CCCCc1nc(Cl)c(CCCC(=O)O)n1Cc1ccc(-c2ccccc2C(=O)O)cc1 [Example 265] | – | 270 nM | – | – | < 10 mg/kg | < 100 mg/kg | – |
| CCCc1nc(C(=O)OC)c(C(=O)OC)n1Cc1ccc(-c2ccccc2-c2nnn[nH]2)cc1 [Example 333, 4,5-Dicarbomethoxy-2-n-propyl-1-[(2'-(1H-tetrazol-5-yl)biphenyl-4-yl)methyl]imidazole] | 51 nM | – | < 3 mg/kg | < 30 mg/kg | – | – | – |
| CCCCc1nc(Cl)c(COC)n1Cc1ccc(N(C)C(=O)c2c(Cl)ccc(Cl)c2C(=O)O)cc1 [Example 77, 2-n-Butyl-4-chloro-5-methoxymethyl-1-[4-(N-methyl-2-carboxy-3,6-dichlorobenzamid)benzyl]imidazole] | – | – | – | – | – | – | minimal effective dose at 10 mg/kg ([1]; tested as sodium salt): > 100 mg/kg; minimal effective dose at 100 mg/kg ([1]; tested as sodium salt): > 100 mg/kg; IC50 [2, 3]: 5700 nM |
| CCCc1nc(C(F)(F)C(F)(F)C(F)(F)C(F)(F)F)c(CO)n1Cc1ccc(-c2ccccc2C(=O)O)cc1 [Example 124H] | 290 nM | – | < 3 mg/kg | < 30 mg/kg | – | – | – |
| CCCCc1nc(Cl)c(CCC(=O)O)n1Cc1ccc(-c2ccccc2C(=O)O)cc1 [Example 264] | – | 250 nM | – | – | < 10 mg/kg | < 100 mg/kg | – |
| CCCc1nc(Cl)c(C=O)n1Cc1ccc(-c2ccccc2-c2nnn[nH]2)cc1 [Example 114, 2-Propyl-4-chloro-1-[(2'-(1H-tetrazol-5-yl)biphenyl-4-yl)methyl]imidazole-5-carboxaldehyde] | – | 50 nM | – | – | < 10 mg/kg | < 100 mg/kg | – |
| CCCCc1nc(Cl)c(COC)n1Cc1ccc(C(=O)Nc2ccccc2C(=O)O)cc1 [Example 78] | – | – | – | – | – | – | minimal effective dose at 10 mg/kg ([1]; tested as sodium salt): < 10 mg/kg; minimal effective dose at 100 mg/kg ([1]; tested as sodium salt): < 100 mg/kg; IC50 [2, 3]: 8000 nM |
| CCCCc1nc(Cl)c(CO)n1Cc1ccc(-c2cccc(C(=O)OCOC(=O)C(C)(C)C)c2)cc1 [Example 88, 1-[(3'-Trimethylacetoxymethoxycarbonylbiphenyl-4-yl)methyl]-2-butyl-4-chloro-5-hydroxymethylimidazole] | – | 1300 nM | – | – | – | < 100 mg/kg | – |
| CCCc1nc(C)c(CO)n1Cc1ccc(-c2ccccc2C(=O)O)cc1 [Example 321, 1-[(2'-Carboxybiphenyl-4-yl)methyl]-5-hydroxymethyl-4-methyl-2-propylimidazole.hydrochloride] | 1800 nM | – | < 3 mg/kg | > 30 mg/kg | – | – | – |
| CCCCc1nc(Cl)c(-c2[nH]nnc2C(=O)O)n1Cc1ccc(-c2ccccc2-c2nnn[nH]2)cc1 [Example 345, 2-n-Butyl-5-(4-carboxy-1,2,3-triazol-5-yl)-4-chloro-1-[(2'-(1H-tetrazol-5-yl)biphenyl-4-yl)methyl]imidazole] | 1100 nM | – | < 3 mg/kg | – | – | – | – |
| CCCCc1nc(Cl)c(CO)n1Cc1ccc(-c2c(C#N)cccc2-c2nnn[nH]2)cc1 [Example 343, 2-n-Butyl-4-chloro-1-[(2'-cyano-6'-(1H-tetrazol-5-yl)biphenyl-4-yl)methyl]-5-hydroxymethylimidazole] | 510 nM | – | < 3 mg/kg | > 30 mg/kg | – | – | – |
| CCCCc1nc(Cl)c(CC(C)C(=O)OC(C)C)n1Cc1ccc(NC(=O)c2ccccc2NS(=O)(=O)C(F)(F)F)cc1 (stereo not drawn) [Example 237, 3-[1-(4-((N-trifluoromethanesulfonyl)anthranilamido)benzyl)-2-butyl-4-chlorimidazol-5-yl]-2-methylpropanoic acid, isopropyl ester] | – | 120 nM | – | – | < 10 mg/kg | > 100 mg/kg | – |

Continued, in another order:

| IC50 ([2]; Table 26) | IC50 ([2]; Table 25) | Compound | minimal effective dose at 3 mg/kg [1] | minimal effective dose at 30 mg/kg [1] | minimal effective dose at 10 mg/kg [1] | minimal effective dose at 100 mg/kg [1] | also measured |
| --- | --- | --- | --- | --- | --- | --- | --- |
| 1100 nM | – | CCCc1nc(C(F)(F)F)c(C(=O)O)n1Cc1ccc(-c2ccccc2-c2nn[nH]n2)cc1 [Example 265A] | < 3 mg/kg | < 30 mg/kg | – | – | – |
| 1600 nM | – | CCCc1nc(C(F)(F)C(F)(F)F)c(C(=O)O)n1Cc1ccc(-c2ccccc2C(=O)O)cc1 [Example 265E] | < 3 mg/kg | – | – | – | – |
| 7 nM | – | CCCCc1nc(C(F)(F)C(F)(F)F)c(CO)n1Cc1ccc(-c2ccccc2-c2nn[nH]n2)cc1 [Example 124E] | < 3 mg/kg | < 30 mg/kg | – | – | – |
| 50 nM | – | CCCc1nc(C(F)(F)C(F)(F)F)c(CO)n1Cc1ccc(-c2ccccc2C(=O)O)cc1 [Example 124B] | < 3 mg/kg | < 30 mg/kg | – | – | – |
| 33 nM | – | CCCCc1nc(Br)c(C=O)n1Cc1ccc(-c2ccccc2-c2nnn[nH]2)cc1 [Example 140E] | < 3 mg/kg | < 30 mg/kg | – | – | – |
| 76 nM | – | CCCCc1nc(C(F)(F)F)c(C(=O)OC)n1Cc1ccc(-c2ccccc2-c2nnn[nH]2)cc1 [Example 140H] | < 3 mg/kg | < 30 mg/kg | – | – | – |
